According to publication PMC10415461 (Molecular Diversity, 2022):
≈ marks a conversion by molar mass, not a printed value. Like-named read-outs stand apart in the source and are kept apart here.

Experiments:
S. aureus (ATCC 6538) = test: Antibacterial MIC, standard agar cup diffusion method; type: cell-based, Staphylococcus aureus; conditions: 24 h; for MIC: Staphylococcus aureus, ATCC6538, 37 °C, read-out: MIC S. aureus (Gram-positive)
Method: (§1) The antibacterial and antifungal activities of compounds, ketone 1, 2a-j, and 5a-i were evaluated in vitro against S. aureus (ATCC 6538), P. aeruginosa (ATCC 10,145), E. coli (ATCC 8739), and C. albicans (ATCC 10,231). […] Standard strains of Staphylococcus aureus (ATCC 6538), Pseudomonas aeruginosa (ATCC 10,145), and Escherichia coli (ATCC 8739) were obtained from microbiological resource center, Faculty of Agriculture, Ain Shams University, Cairo, Egypt. All isolates were maintained at -70 °C in Trypticase Soya Broth (TSB, Becton, and Dickinson) with 10% glycerol. Prior to inoculation, all isolates were subcultured at 37 °C for 24 h on Trypticase Soya Agar (TSA, Becton, and Dickinson) and TSB, respectively.
(§2) The plates were rotated slowly to ensure uniform distribution of the microorganisms and then allowed to solidify on a flat surface. After solidification, four equidistant and circular wells of 10 mm diameter were carefully punched using a sterile cork bore. Twofold serial dilutions of the tested compounds using DMSO were performed. An equal volume of 100µL of each dilution was applied separately to each well in three replicates using a micropipette. All plates were incubated at 37 °C for 24 h. The inhibition zones were measured, and their average was calculated.

[1] = system: C. albicans (ATCC 10,231); test: Antifungal MIC, agar cup diffusion method; type: cell-based, Candida albicans; conditions: Sabouraud agar, 37 °C; for MIC: Candida albicans, ATCC 10,231, 24 h, read-out: MIC C. albicans (Fungi)
Method: The antibacterial and antifungal activities of compounds, ketone 1, 2a-j, and 5a-i were evaluated in vitro against S. aureus (ATCC 6538), P. aeruginosa (ATCC 10,145), E. coli (ATCC 8739), and C. albicans (ATCC 10,231). […] The antifungal activity of compounds 1, 2a-j, and 5a-i and ketoconazole were determined according to the agar cup diffusion method at Deraya University, Faculty of Pharmacy, Department of Microbiology.
Fungal strains and culture conditions. […] Standard strain of Candida albicans (ATCC 10,231) was obtained from microbiological resource center, Faculty of Agriculture, Ain Shams University, Cairo, Egypt. The isolate was maintained at -70 °C in Trypticase Soya Broth (TSB, Becton, and Dickinson) with 10% glycerol. Prior to inoculation, the isolate was subcultured at 37 °C for 24 h on Trypticase Soya Agar (TSA, Becton, and Dickinson) and TSB, respectively.
as §2

E. coli (ATCC 8739) = test: Antibacterial MIC, standard agar cup diffusion method; type: cell-based; conditions: Escherichia coli, ATCC8739, 37 °C, 24 h, read-out: MIC E. coli (Gram-negative)
Method: as §1, §2

[2] = system: P. aeruginosa (ATCC 10,145); test: as above; type: cell-based; conditions: Pseudomonas aeruginosa, ATCC 10145, 37 °C, 24 h, read-out: MIC P. aeruginosa (Gram-negative)
Method: as §1, §2

[3] = Solubility determination in phosphate buffer; type: physicochemical; conditions: aqueous buffer, thermodynamic from solid
Method: A sample of drug was accurately weighed and dissolved in 100 ml of distilled water to prepare 100 mcg/ml stock solutions. Appropriate dilution of the stock solution with phosphate buffer pH 6.8 and 7.8 was then made to prepare a working solution of 40mcg/ml.
After determination of λ max of drug, a calibration curve was constructed by preparing solutions containing different concentrations of (1–5 mcg/ml) from stock solution after appropriate dilution with phosphate buffer pH 6.8. The UV absorbance of the prepared sample solutions were measured at the predetermined λ max using phosphate buffer pH 6.8 as a blank.
Aqueous solubility of the complexes was measured as a function of pH. An excess of each derivative was placed into suitable stoppered containers. […] The samples were immersed in a water bath thermostatized at 37 ± 1^◦C and 100 rpm and periodically shaken for 48 h. Once the equilibrium was reached, the pH of the supernatant was regarded.

S. aureus DNA gyrase = S. aureus DNA gyrase (Staphylococcus aureus, UniProt P0A0K8+P20831); test: Staphylococcus aureus DNA gyrase supercoiling assay; type: biochemical; conditions: supercoiling of relaxed pBR322, 37 °C, 30 min; read-out: S. aureus DNA gyrase IC50 ± SD
Sequence of S. aureus DNA gyrase (P20831 whole entry): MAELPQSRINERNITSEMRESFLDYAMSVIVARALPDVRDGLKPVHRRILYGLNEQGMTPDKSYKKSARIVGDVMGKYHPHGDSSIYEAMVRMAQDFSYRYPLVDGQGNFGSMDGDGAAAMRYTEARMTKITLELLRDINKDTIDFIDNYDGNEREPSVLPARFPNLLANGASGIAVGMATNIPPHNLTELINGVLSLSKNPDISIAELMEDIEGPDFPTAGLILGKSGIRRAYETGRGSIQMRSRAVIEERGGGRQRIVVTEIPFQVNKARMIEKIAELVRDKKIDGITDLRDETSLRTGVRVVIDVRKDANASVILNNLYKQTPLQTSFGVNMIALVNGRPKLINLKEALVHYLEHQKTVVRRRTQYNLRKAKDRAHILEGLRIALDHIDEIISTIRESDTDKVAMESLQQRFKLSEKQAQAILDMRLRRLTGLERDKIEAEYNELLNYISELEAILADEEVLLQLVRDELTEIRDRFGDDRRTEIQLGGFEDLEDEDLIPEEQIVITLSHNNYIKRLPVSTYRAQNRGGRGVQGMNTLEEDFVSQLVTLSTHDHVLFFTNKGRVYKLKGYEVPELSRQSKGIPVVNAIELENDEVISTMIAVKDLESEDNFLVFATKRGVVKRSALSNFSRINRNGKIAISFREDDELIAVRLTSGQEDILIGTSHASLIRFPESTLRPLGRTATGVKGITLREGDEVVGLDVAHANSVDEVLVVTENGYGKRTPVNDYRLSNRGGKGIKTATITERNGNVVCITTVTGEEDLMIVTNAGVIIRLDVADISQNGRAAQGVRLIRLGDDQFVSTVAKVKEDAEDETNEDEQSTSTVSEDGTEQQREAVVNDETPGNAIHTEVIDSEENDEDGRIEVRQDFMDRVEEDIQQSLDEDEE
Sequence of S. aureus DNA gyrase (P0A0K8 whole entry): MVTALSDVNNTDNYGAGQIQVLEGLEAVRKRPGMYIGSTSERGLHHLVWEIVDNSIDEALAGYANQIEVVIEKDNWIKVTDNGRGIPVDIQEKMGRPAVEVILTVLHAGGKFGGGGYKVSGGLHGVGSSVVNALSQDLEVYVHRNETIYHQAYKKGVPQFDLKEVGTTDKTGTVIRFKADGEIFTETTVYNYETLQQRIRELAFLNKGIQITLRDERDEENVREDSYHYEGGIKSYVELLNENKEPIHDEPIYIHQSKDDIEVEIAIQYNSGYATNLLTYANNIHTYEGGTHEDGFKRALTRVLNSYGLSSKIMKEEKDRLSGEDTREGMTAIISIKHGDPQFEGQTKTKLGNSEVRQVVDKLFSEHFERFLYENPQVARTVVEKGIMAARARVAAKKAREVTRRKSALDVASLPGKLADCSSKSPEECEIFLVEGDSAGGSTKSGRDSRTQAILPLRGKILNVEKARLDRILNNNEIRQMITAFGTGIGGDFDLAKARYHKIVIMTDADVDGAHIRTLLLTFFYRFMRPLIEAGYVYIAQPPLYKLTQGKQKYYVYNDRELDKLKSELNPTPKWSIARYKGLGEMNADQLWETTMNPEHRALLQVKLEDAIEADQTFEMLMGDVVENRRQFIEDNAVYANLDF
Method: As antibacterial agents, fluoroquinolones act by targeting and inhibiting DNA gyrase (topo II) which is an essential enzyme involved in the DNA replication process.
Staphylococcus aureus DNA gyrase was incubated at 37 °C for 30 min in a total reaction volume of 30 μl containing 40 mM HEPES. KOH (pH 7.6), 10 mM magnesium acetate, 10 mM DTT, 2 mM ATP, 500 mM potassium glutamate, 0.05 mg/ml albumin and Relaxed pBR322. DNA gyrase supercoiling reactions catalyzed by S. aureus gyrase, Stop reaction by adding 30 μL of STEB and 30 μL of chloroform/isoamyl alcohol (v:v, 24:1),and then Vortex briefly ~ 5 secs and centrifuge for 1 min. after which 20 µL of this was loaded on a 1% agarose gel that was then run at ~ 75 V for approximately 2 h. The gel was stained by (0.5 mg/L) ethidium bromide in water. Fluorescent images were taken at a wavelength of 300 nm on a UV transilluminator imaging system. The fluorescence intensity of the supercoiled plasmid reaction product was quantitated using ImagQuant software (Molecular Dynamics).

physchem = conditions: pH 7.8
Method: The n-octanol/water apparent partition coefficient at the isoelectric point (or distribution constant) was measured by using the traditional shake-flask technique. The pH of the aqueous buffer was first adjusted to isoelectric point of the compound. The n-octanol and aqueous phases were then mutually saturated before the measurement. […] The samples were agitated for 5h at water bath shaker thermostatized at 25 ± 1^◦C and 100 rpm. The concentration of the solute was determined in the aqueous and organic phases at the isoelectric point by UV spectroscopy the log p value was calculated as follows: […].

[4] = phosphate buffer pH 6.8, 37 °C, read-out: Solubility pH 6.8
[5] = phosphate buffer pH 7.8, 37 °C, read-out: Solubility pH 7.8

Compound: CC(=O)c1ccc(NC(=O)N2CCN(c3cc4c(cc3F)c(=O)c(C(=O)O)cn4C3CC3)CC2)cc1 [Compound 1]
- MIC S. aureus (Gram-positive) (S. aureus (ATCC 6538); 37 °C): 0.70 µg/mL (≈ 1.42 µM)
- MIC (S. aureus (ATCC 6538)): 0.7 µg/mL (≈ 1.42 µM)
- MIC [1]: > 100 µg/mL
- MIC (E. coli (ATCC 8739)): 0.6 µg/mL (≈ 1.22 µM)
- MIC [2]: 1.2 µg/mL (≈ 2.44 µM)

Compound: O=C(/C=C/c1ccccc1)c1ccc(NC(=O)N2CCN(c3cc4c(cc3F)c(=O)c(C(=O)O)cn4C3CC3)CC2)cc1 [Compound 2a]
- MIC (S. aureus (ATCC 6538)): 0.74 µg/mL (≈ 1.27 µM)
- solubility at 48 h [3, 4]: 210 µg/mL (≈ 362 µM)
- solubility at 48 h [3, 5]: 150 µg/mL (≈ 258 µM)
- IC50 (S. aureus DNA gyrase): 3.47 ± 0.18 µM
- MIC [1]: > 100 µg/mL
- MIC (E. coli (ATCC 8739)): 0.64 µg/mL (≈ 1.1 µM)
- MIC [2]: 1.12 µg/mL (≈ 1.93 µM)
- logD (physchem): 0.24

Compound: O=C(/C=C/c1ccc(Br)cc1)c1ccc(NC(=O)N2CCN(c3cc4c(cc3F)c(=O)c(C(=O)O)cn4C3CC3)CC2)cc1 [Compound 2d]
- MIC (S. aureus (ATCC 6538)): 2.65 µg/mL (≈ 4.02 µM)
- solubility at 48 h [3, 4]: 140 µg/mL (≈ 212 µM)
- solubility at 48 h [3, 5]: 160 µg/mL (≈ 243 µM)
- MIC [1]: > 100 µg/mL
- MIC (E. coli (ATCC 8739)): 4.78 µg/mL (≈ 7.25 µM)
- MIC [2]: 7.25 µg/mL (≈ 11 µM)
- logD (physchem): 0.42

Compound: O=C(/C=C/c1ccc(F)cc1)c1ccc(NC(=O)N2CCN(c3cc4c(cc3F)c(=O)c(C(=O)O)cn4C3CC3)CC2)cc1 [Compound 2e]
- MIC (S. aureus (ATCC 6538)): 0.89 µg/mL (≈ 1.49 µM)
- solubility at 48 h [3, 4]: 160 µg/mL (≈ 267 µM)
- solubility at 48 h [3, 5]: 180 µg/mL (≈ 301 µM)
- IC50 (S. aureus DNA gyrase): 3.81 ± 0.2 µM
- MIC [1]: 2.03 to 3.89 µg/mL (≈ 3.39 to 6.5 µM)
- MIC C. albicans (Fungi) ([1]; 24 h): 2.03 µg/mL (≈ 3.39 µM)
- MIC (E. coli (ATCC 8739)): 0.53 µg/mL (≈ 0.885 µM)
- MIC [2]: 0.96 µg/mL (≈ 1.6 µM)
- logD (physchem): 0.07

Compound: Cc1ccc(/C=C/C(=O)c2ccc(NC(=O)N3CCN(c4cc5c(cc4F)c(=O)c(C(=O)O)cn5C4CC4)CC3)cc2)cc1 [Compound 2f]
- MIC (S. aureus (ATCC 6538)): 0.94 µg/mL (≈ 1.58 µM)
- solubility at 48 h [3, 4]: 160 µg/mL (≈ 269 µM)
- solubility at 48 h [3, 5]: 170 µg/mL (≈ 286 µM)
- IC50 (S. aureus DNA gyrase): 1.77 ± 0.09 µM
- MIC [1]: > 100 µg/mL
- MIC (E. coli (ATCC 8739)): 9.33 µg/mL (≈ 15.7 µM)
- MIC [2]: 3.7 µg/mL (≈ 6.22 µM)
- logD (physchem): 0.4

Compound: COc1ccc(/C=C/C(=O)c2ccc(NC(=O)N3CCN(c4cc5c(cc4F)c(=O)c(C(=O)O)cn5C4CC4)CC3)cc2)cc1 [Compound 2g]
- MIC (S. aureus (ATCC 6538)): 8 µg/mL (≈ 13.1 µM)
- MIC [1]: > 100 µg/mL
- MIC (E. coli (ATCC 8739)): 17 µg/mL (≈ 27.8 µM)
- MIC [2]: 6.25 µg/mL (≈ 10.2 µM)

Compound: CN(C)c1ccc(/C=C/C(=O)c2ccc(NC(=O)N3CCN(c4cc5c(cc4F)c(=O)c(C(=O)O)cn5C4CC4)CC3)cc2)cc1 [Compound 2h]
- MIC (S. aureus (ATCC 6538)): 1.2 µg/mL (≈ 1.92 µM)
- solubility at 48 h [3, 4]: 680 µg/mL (≈ 1090 µM)
- solubility at 48 h [3, 5]: 780 µg/mL (≈ 1250 µM)
- MIC [1]: 84.2 µg/mL (≈ 135 µM)
- MIC (E. coli (ATCC 8739)): 5.25 µg/mL (≈ 8.42 µM)
- MIC [2]: 3.12 µg/mL (≈ 5.01 µM)
- Lipophilicity (log p) (physchem): − 0.21
